Experiment: gradient 5% acetonitrile 3 min, to 50% in 2 min, to 85% in 15 min, held 3 min, 100 µL/min
Conditions: column: Zorbax Extend-C18 2.1 x 50 mm; eluents: water / acetonitrile, 0.1% formic acid
Procedure, shortened: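 The system's dead and dwell volumes were 40 μL and 900 μL, with a Zorbax Extend-C18 column (2.1 × 50 mm, 1.8 μm) run at 100 μL/min in water and acetonitrile containing 0.1% formic acid each. Pure standards were analyzed in mixtures of ~100 molecules by HPLC–quadrupole time-of-flight mass spectrometry in positive and negative ionization mode. Retention time was assigned from computationally picked, manually inspected adduct peaks.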

Structure (SMILES) | RP-LC retention time
Cc1c(-c2nsc(Nc3ccccc3)n2)nnn1-c1ccccc1 | 946 s
Cc1ccc(Cl)cc1NS(=O)(=O)c1cc2c(s1)CCN(C(=O)C1CC1)C2 | 901 s
CCc1cc(-c2csc(S(=O)(=O)N3CCN(c4ccc(Cl)cc4)CC3)c2)on1 | 1200 s
C=C1C(=O)C2=CC1CCC(=O)C1(C)CCC(OC(C)=O)C(C)(C)C1CC2O (centres undefined) | 718 s
CCOc1ccc(C(=O)Nc2ccc(-c3cn4ccc(C)nc4n3)cc2)cc1OCC | 684 s
Cc1cc2nn(CC(=O)Nc3ccc(F)cc3)c(=O)n2c(Nc2ccc(F)cc2)n1 | 972 s
CC(=O)N1c2ccc(S(=O)(=O)N3CCCCC3)cc2CC1C(=O)NCCCN1CCCCC1 (centres undefined) | 577 s
Cc1ccc(C)c(-c2csc(Cc3nc(-c4ccc(F)cc4)no3)n2)c1 | 1300 s
COc1ccc(OC)c(CN2C(=O)c3ccccc3C2C(=O)NCC2CCCO2)c1 (centres undefined) | 641 s
CCCN(CC1CCOC1)C(=O)Nc1ccc(C)c(F)c1 (centres undefined) | 857 s
O=c1n(Cc2ccc(F)cc2)nc2ccc(S(=O)(=O)N3CCc4ccccc4C3)cn12 | 983 s
CC(C)CCNC(=O)Cn1ccn2nc(-c3ccc(F)cc3)c(CO)c2c1=O | 804 s
O=c1ccc(-c2ccccc2)nn1Cc1nc(-c2ccc(Cl)cc2)no1 | 1080 s
Cc1ccc2c(c1)OCC(=O)N2Cc1nc(-c2cccc(C(F)(F)F)c2)no1 | 919 s
COC[C@@H]1CN(Cc2ccc(C#N)cc2)C[C@H]1c1ccccn1 | 553 s
CCCCNC(=O)c1ccc(-n2ccnc2SCC(=O)Nc2ccccc2)cc1 | 746 s
Cc1ccc(NC(=O)N2CCC(CC(=O)N3CCCCC3)CC2)cc1C | 793 s
CC1=C(c2ccc(Cl)cc2)S(=O)(=O)N=C1N1CCCN(C(=O)c2cccs2)CC1 | 840 s
O=C(CCCn1c(=O)c2cccn2c2ccc(Br)cc21)NCc1ccccn1 | 646 s
CCOc1ccc(CC(=O)N2CCC3(CC2)N=C(c2ccc(C)cc2)NO3)cc1 | 871 s
O=C(c1cc(Cl)ccc1F)N1CCC2(CC1)NC(=O)N(Cc1ccc(F)cc1)C2=O | 852 s
CCOC(=O)Cc1c(C)c2cc(C(=O)c3ccccc3)c(O)cc2oc1=O | 768 s
CCN1C(=O)C2(CCN(S(=O)(=O)c3c(C)noc3C)CC2)c2ccccc21 | 731 s
OC[C@H]1O[C@@H](n2cnc3c(NC4CCCCC4)ncnc32)[C@H](O)[C@@H]1O | 656 s

Structure (SMILES) | RP-LC retention time
O=C([C@@H]1C[C@H](F)CN1C(=O)c1ccccc1)N1CCCCC1 | 668 s
COc1ccc(CCN2CC(=O)N(c3ccc(C)c(C)c3)[C@@H]3CS(=O)(=O)C[C@@H]32)cc1 | 886 s
CN(CCCC(=O)O)S(=O)(=O)c1ccc(N)cc1 | 598 s
CN1C(=O)Cc2cc(NC(=O)c3cccs3)ccc21 | 631 s
Cc1cc(C(=O)N(CCc2cccs2)Cc2cccnc2)c(C)o1 | 619 s
CN1CCN(CC2CCC3(CCN(S(=O)(=O)c4ccc(C(C)(C)C)cc4)CC3)O2)CC1 (centres undefined) | 665 s
O=C(Cc1csc(Nc2cccc(Cl)c2)n1)N1CCN(C(=O)c2ccco2)CC1 | 718 s
Cc1nc(C)c(C(=O)NCCn2c(C)cnc2C2CCC2)s1 | 570 s
COc1ccccc1-c1noc(CCn2nc(-c3ccc4c(c3)OCO4)ccc2=O)n1 | 802 s
CCC(NC(=O)c1nnc(-c2ccc(S(=O)(=O)N(C)C)cc2)o1)c1cccs1 (centres undefined) | 912 s
Cc1oc(-c2ccc(C(=O)NCCN3CCOCC3)cc2)nc1CN1CCc2ccccc21 | 690 s
Cc1nc2cccnc2n1C1CCN(C(=O)C2CCCCC2)C1 (centres undefined) | 591 s
COC(=O)C1=CN(C2CC2)c2cc(N3CCN(C4CCCCC4)CC3)c(F)cc2S1(=O)=O | 643 s
O=C(Nc1c(-c2ccc(F)cc2)nc2ccccn12)c1ccccc1F | 639 s
COc1ccc(Cl)cc1NS(=O)(=O)c1ccc2c(c1)CCCC(=O)N2 | 765 s
CCn1c(=O)c2ccccc2n(Cc2nc(-c3ccccc3C)no2)c1=O | 1070 s
CC1(C(=O)NC2CCCCCC2)CN(S(C)(=O)=O)CC(=O)N1Cc1cccc(F)c1 (centres undefined) | 885 s
COc1ccc(C2CC(=O)N(c3ccccc3)C(=O)C2)cc1OC | 860 s
COc1ccccc1CC(=O)N1CCCn2nc(-c3ccc(C)cc3)cc2C1 | 930 s
COc1ccc(C2c3c(n(C)c4ccccc34)C(=O)N2CC(=O)N2CCN(c3ccccn3)CC2)cc1 (centres undefined) | 710 s
CCC(=O)NCc1nc2c(n1C)CN(S(=O)(=O)c1cccc(F)c1)CC2 | 558 s
CCCN(C(=O)c1cccc(F)c1)c1nc(-c2ccccc2)cs1 | 1310 s
CCOc1ccc(CN2C[C@@H](CO)[C@H](c3ccncc3)C2)cc1OCC | 556 s

More lines, now with the values ahead:

RP-LC retention time | Structure (SMILES)
643 s | COCC1CN(S(=O)(=O)c2ccc(C)c(F)c2)CC12CCNCC2 (centres undefined)
704 s | CCOc1ccc(CNC(=O)C2CCN(S(=O)(=O)c3cn(C(C)C)cn3)CC2)cc1OC
760 s | O=S(=O)(c1ccccc1Cl)N1CC(F)(F)C[C@H]1CN1CCc2ccccc2C1
850 s | Cc1ccc(NC(=O)Cn2nc(C(=O)N3CCCC3)c3ccccc32)cc1
1010 s | CCCCOC(=O)c1ccc(NC(=O)c2snnc2CC)cc1
966 s | CC(C)NC(=O)N1CCCC(c2cccc(C(=O)NCc3ccccc3C(F)(F)F)c2)C1 (centres undefined)
799 s | Cc1cc2c(cc1S(=O)(=O)N1CCCC1C(=O)NCC(C)c1ccccc1)OCC(=O)N2 (centres undefined)
754 s | CC(C)n1cnc(S(=O)(=O)N2CCC(C(=O)N3CCN(c4ccccc4)CC3)CC2)c1
942 s | Cc1cc(C)c(NC(=O)COc2cc(C)nc(N3CCN(c4ccccc4)CC3)n2)c(C)c1
941 s | CC1CCCN(c2nc(-c3ccc(Cl)cc3)nc3ccccc23)C1 (centres undefined)
934 s | Cc1ccccc1Cn1c(CN2CCC(C(=O)NC3CCCCCCC3)CC2)cc2ccccc21
842 s | CC(C)n1cnc(S(=O)(=O)N2CCCC(C(=O)Nc3cccc(Cl)c3)C2)c1 (centres undefined)
553 s | CCOC(=O)N1CCN(C(=O)Cn2c(-c3cccn(C)c3=O)nc3ccccc32)CC1
682 s | Cc1ncc2c(n1)CCCN(CC(=O)NC1CCCCCC1)C2=O
896 s | CCCn1ccc2sc(C)c(C(=O)NCc3ccccc3OC)c2c1=O
757 s | Cn1nnnc1C1CCCN(S(=O)(=O)Cc2ccccc2F)C1 (centres undefined)
991 s | CCCCOc1ccccc1C(=O)N(Cc1ccc(Br)o1)C1CCS(=O)(=O)C1 (centres undefined)
582 s | CC(C)CNC(=O)C1CCN(c2cncnc2N2CCOCC2)CC1
1060 s | CCc1nc(-c2csc(S(=O)(=O)N3CCCC(C(=O)NCc4ccc(C)cc4)C3)c2)no1 (centres undefined)
576 s | CSc1ccc(NC(=O)N2CCN(c3cnn4c(C)nnc4c3)CC2)cc1
888 s | Cc1ccc(-c2ncc3c(=O)n(CC(=O)N4CCCC4)c(=O)n(C)c3n2)cc1

RP-LC retention time | Structure (SMILES)
576 s | OC(COc1ccc(Br)cc1Br)CN1CCCC1 (centres undefined)
863 s | Cc1ccc(NC(=O)Cn2c(=O)c(CCC(=O)NC3CCCC3)nc3ccccc32)cc1C
750 s | COc1ccccc1CNC1=NCCNC12CCN(S(=O)(=O)c1ccc(Cl)cc1)CC2
581 s | CCN1CCN(C(=O)CN2C(=O)c3ccccc3Sc3ncccc32)CC1
910 s | COc1ccccc1CNC(=O)C1CCN(S(C)(=O)=O)c2cc(Cl)ccc2O1 (centres undefined)
1100 s | Cn1nccc1-c1cccc(-c2noc(-c3cc(F)ccc3F)n2)c1
708 s | COc1ccc(CCNC(=O)CSC2CCc3ccccc3NC2=O)cc1OC (centres undefined)
903 s | COC(=O)C1=CN(c2cc(Cl)c(OC)cc2OC)c2ccccc2S1(=O)=O
700 s | COc1ccc(NC(=O)N2CCC3(CC2)NC(=O)c2ccccc2N3C)cc1
700 s | C=CCNC(=O)C1CCCN(S(=O)(=O)c2ccc(OC)c(OC)c2)C1 (centres undefined)
580 s | Cc1noc([C@@H]2CN(Cc3ccc(F)cc3F)C[C@H]2CO)n1
854 s | O=C(NC1CCCC1)N1c2ccccc2CC1c1noc(C2CCOCC2)n1 (centres undefined)
1170 s | O=S(=O)(c1ccccc1)N1CCc2nc(-c3ccc(Cl)cc3)ncc2C1
640 s | Cc1ccc(-c2nc(C(=O)N(C)C)c3n2CCCCC3)cc1
966 s | Cc1sc(-c2ccn[nH]2)cc1NC(=O)CCc1ccccc1
776 s | O=C(Nc1ccc2c(c1)C(=O)Nc1ccccc1O2)NC1CCCCC1
683 s | CCSc1nnc(NC(=O)CSC2=NN3CCCC(=O)N=C3S2)s1
621 s | O=C(NCCCn1ncccc1=O)c1ccc(S(=O)(=O)N2CCCC2)cc1
705 s | O=C(C1CCN(S(=O)(=O)Cc2ccc(F)cc2)CC1)N1CCOCC1
625 s | COc1ccc(NC(=O)NC2CCN(c3cc(N4CCCC4)cnn3)C2)cc1F (centres undefined)
787 s | COCCCNC(=O)C1c2ccccc2C(=O)N1CCc1ccc(C)cc1 (centres undefined)

— the METLIN SMRT retention time set (Domingo-Almenara et al. 2019)
